{"source": "patent US20060058384A1", "about": "“Treatment of IGA nephropathy with omega-3 fatty acids” (PRONOVA BIOCARE, A.S., priority 2004, published 2006)", "test_system": "patients with IgA nephropathy", "assay": "Placebo-controlled clinical trial in IgA nephropathy: GFRest, UP/C and Composite Response/Outcome Scores", "assay_type": "in vivo, human", "description": "In a multicenter, placebo-controlled, double blind clinical trial, we evaluated the efficacy of a 24-month stable daily dose (4 grams per day) of a highly purified preparation of O3 (especially icosapent & doconexent).\nWe performed secondary analyses based on clinical response scores derived from changes in the level of proteinuria (defined by urine protein to creatinine ratios in first morning urine specimens) and GFRest. Composite Response Score, which represented changes in proteinuria and GFR scores were also calculated.\nThis was a placebo-controlled, prospective clinical trial. After fulfilling all entry criteria, patients were assigned to one of three treatment arms, as described in our paper discussing the primary analysis of this study.\nRandomization of patients was stratified by hypertensive status and blocked randomization was used within each stratum.\nEstimation of GFR and level of proteinuria. The glomerular filtration rate (GFR) was estimated at 6 monthly intervals in each patient using standard age-appropriate formulas. […] Serum creatinine measurements were measured by HPLC. […]\nStatistical analysis: After it was noted that there was wide variation in the plasma phospholipid fatty acid profiles in patients receiving icosapent/doconexent (FIG. 1), a series of secondary analyses was conducted to determine the cause for this variability and to evaluate if the fatty acid profiles affected patient outcome. Clinical response scores were determined for each patient based on changes in the estimated GFR (−5 to +5) and urine protein/creatinine ratios (−5 to +5) at each 6 month visit up to 36 months. Composite response scores (−10 to +10) at each time interval were then determined based on the patients' combined GFR and UP/C Response Scores—with equal weight given to each (Table 1). Clinical outcome scores were then calculated based on the mean of the Composite Response Scores at 18 and 24 months. The dosage of the study drugs given to each patient was calculated as g/kg body weight and g/m^2 BSA. […]", "note": "“Also recorded” adds a separate entry of the source.", "data": [{"smiles": "C[C@]12C=CC(=O)C=C1CC[C@@H]1[C@@H]2C(=O)C[C@@]2(C)[C@H]1CC[C@]2(O)C(=O)CO", "note": "[prednisone]", "values": [{"measurement": "Composite Response Scores, treatment arm as a whole", "setting": "6-month intervals, 0 to 36 months, FIG. 2", "result": "significantly better; also recorded: better response"}, {"measurement": "Primary analysis: decrease of GFR to less than 60% of baseline", "setting": "24-month treatment, O3 4 grams per day, prednisone alternate-day", "result": "did not show a statistically significant benefit"}, {"measurement": "Secondary analysis: efficacy by clinical response scores (proteinuria and GFRest)", "setting": "secondary analyses", "result": "effective"}]}]}
